Among the data in PubChem BioAssay AID1259411 (Chemical Carcinogenesis Research Information System (CCRIS), 2018) are carcinogen call values, retold here.

Structures are written as SMILES. Calls of active or inactive are those of the source. How the calls were made is not given here.

For this series, the system named is rodent carcinogenicity bioassays, tumor incidence. The series is described as follows: CCRIS carcinogenicity studies. The gist of the method:
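Archive of carcinogenicity, mutagenicity, tumor promotion and tumor inhibition results drawn from journals, NCI reports and other sources, expert-reviewed; covers 1985-2011 and is no longer updated.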

Consider `Cc1ccc2c3c(cccc13)-c1ccccc1-2`, for which the carcinogen call reads like this: (Species: MOUSE, Strain/Sex: CD-1/FEMALE, Route: INTRAPERITONEAL, Dose: 0, 3.46, 17.3 UMOL (TOTAL DOSE) IN DMSO ADMINISTERED ON DAYS 1,8, AND 15 OF LIFE (STUDY DURATION: 52 WK), Dose: 0, 3.46, 17.3 UMOL (TOTAL DOSE) IN DMSO ADMINISTERED ON DAYS 1,8, AND 15 OF LIFE (STUDY DURATION: 52 WK)) “inactive; negative”; (Species: MOUSE, Strain/Sex: CD-1/MALE, Route: INTRAPERITONEAL, Dose: 0, 3.46, 17.3 UMOL (TOTAL DOSE) IN DMSO ADMINISTERED ON DAYS 1,8, AND 15 OF LIFE (STUDY DURATION: 52 WK), Dose: 0, 3.46, 17.3 UMOL (TOTAL DOSE) IN DMSO ADMINISTERED ON DAYS 1,8, AND 15 OF LIFE (STUDY DURATION: 52 WK), Tumor Site: Type of Lesion: LIVER: TUMORS) “active; positive”.

With `CCCCCCc1ccc(O)cc1O`, the carcinogen call is “inactive; negative” (Species: MOUSE, Strain/Sex: B6C3F1/FEMALE, Route: GAVAGE, Dose: 0, 62.5, 125 MG/KG IN CORN OIL 5D/WK FOR 102 WK (STUDY DURATION: 104 WK), Dose: 0, 62.5, 125 MG/KG IN CORN OIL 5D/WK FOR 102 WK (STUDY DURATION: 104 WK)); “equivocal” (Species: MOUSE, Strain/Sex: B6C3F1/MALE, Route: GAVAGE, Dose: 0, 62.5, 125 MG/KG IN CORN OIL 5D/WK FOR 102 WK (STUDY DURATION: 104 WK), Dose: 0, 62.5, 125 MG/KG IN CORN OIL 5D/WK FOR 102 WK (STUDY DURATION: 104 WK), Tumor Site: Type of Lesion: ADRENAL GLAND: PHEOCHROMOCYTOMA, HARDERIAN GLAND: ADENOMA OR CARCINOMA); “inactive; negative” (Species: RAT, Strain/Sex: F344/FEMALE, Route: GAVAGE, Dose: 0, 62.5, 125 MG/KG IN CORN OIL 5D/WK FOR 103 WK (STUDY DURATION: 104 WK), Dose: 0, 62.5, 125 MG/KG IN CORN OIL 5D/WK FOR 103 WK (STUDY DURATION: 104 WK)); “inactive; negative” (Species: RAT, Strain/Sex: F344/MALE, Route: GAVAGE, Dose: 0, 62.5, 125 MG/KG IN CORN OIL 5D/WK FOR 103 WK (STUDY DURATION: 104 WK), Dose: 0, 62.5, 125 MG/KG IN CORN OIL 5D/WK FOR 103 WK (STUDY DURATION: 104 WK)).

Turning to `N[C@@H](Cc1c[nH]c2ccccc12)C(=O)O`, the carcinogen call (Species: MOUSE, Strain/Sex: B6C3F1/FEMALE, Route: ORAL, Dose: 0, 25000, 50000 PPM IN DIET, Dose: 0, 25000, 50000 PPM IN DIET) was “inactive; negative”; the carcinogen call (Species: MOUSE, Strain/Sex: B6C3F1/MALE, Route: ORAL, Dose: 0, 25000, 50000 PPM IN DIET, Dose: 0, 25000, 50000 PPM IN DIET) is “inactive; negative”; the carcinogen call (Species: RAT, Strain/Sex: F344/FEMALE, Route: ORAL, Dose: 0, 25000, 50000 PPM IN DIET, Dose: 0, 25000, 50000 PPM IN DIET) is “inactive; negative”; the carcinogen call (Species: RAT, Strain/Sex: F344/MALE, Route: ORAL, Dose: 0, 25000, 50000 PPM IN DIET, Dose: 0, 25000, 50000 PPM IN DIET) was “inactive; negative”.

Turning to `CN(C)CCC(c1ccc(Cl)cc1)c1ccccn1` (stereo unspecified), the carcinogen call is, setting by setting: (Species: MOUSE, Strain/Sex: B6C3F1/FEMALE, Route: GAVAGE, Dose: 0, 100, 200 MG/KG IN DEIONIZED WATER 5 D/WK FOR 103 WK, Dose: 0, 100, 200 MG/KG IN DEIONIZED WATER 5 D/WK FOR 103 WK) “inactive; negative”; (Species: MOUSE, Strain/Sex: B6C3F1/MALE, Route: GAVAGE, Dose: 0, 25, 50 MG/KG IN DEIONIZED WATER 5 D/WK FOR 103 WK, Dose: 0, 25, 50 MG/KG IN DEIONIZED WATER 5 D/WK FOR 103 WK) “inactive; negative”; (Species: RAT, Strain/Sex: F344/FEMALE, Route: GAVAGE, Dose: 0, 30, 60 MG/KG IN DEIONIZED WATER 5 D/WK FOR 103 WK, Dose: 0, 30, 60 MG/KG IN DEIONIZED WATER 5 D/WK FOR 103 WK) “inactive; negative”; (Species: RAT, Strain/Sex: F344/FEMALE, Route: ORAL, Dose: 0, 1000 PPM IN DIET FOR 106 WK (STUDY DURATION: 130 WK)) “inactive; negative”; (Species: RAT, Strain/Sex: F344/MALE, Route: GAVAGE, Dose: 0, 15, 30 MG/KG IN DEIONIZED WATER 5 D/WK FOR 103 WK, Dose: 0, 15, 30 MG/KG IN DEIONIZED WATER 5 D/WK FOR 103 WK) “inactive; negative”; (Species: RAT, Strain/Sex: F344/MALE, Route: ORAL, Dose: 0, 1000 PPM IN DIET FOR 106 WK (STUDY DURATION: 130 WK)) “inactive; negative”.

On to `O=Nc1ccc(NO)cc1`, for which the carcinogen call was “inactive; negative” (Species: MOUSE, Strain/Sex: B6C3F1/FEMALE, Route: ORAL, Dose: 0, 750, 1500 PPM IN DIET FOR 104 WK (STUDY DURATION: 105 WK), Dose: 0, 750, 1500 PPM IN DIET FOR 104 WK (STUDY DURATION: 105 WK)); “inactive; negative” (Species: MOUSE, Strain/Sex: B6C3F1/MALE, Route: ORAL, Dose: 0, 750, 1500 PPM IN DIET FOR 104 WK (STUDY DURATION: 105 WK), Dose: 0, 750, 1500 PPM IN DIET FOR 104 WK (STUDY DURATION: 105 WK)); “active; positive” (Species: RAT, Strain/Sex: F344/FEMALE, Route: ORAL, Dose: 0, 375, 750 PPM IN DIET FOR 104 WK (STUDY DURATION: 105 WK), Dose: 0, 375, 750 PPM IN DIET FOR 104 WK (STUDY DURATION: 105 WK), Tumor Site: Type of Lesion: URINARY BLADDER: TRANSITIONAL CELL CARCINOMA, TRANSITIONAL CELL PAPILLOMA OR SQUAMOUS CELL CARCINOMA); “inactive; negative” (Species: RAT, Strain/Sex: F344/MALE, Route: ORAL, Dose: 0, 375, 750 PPM IN DIET FOR 104 WK (STUDY DURATION: 105 WK), Dose: 0, 375, 750 PPM IN DIET FOR 104 WK (STUDY DURATION: 105 WK)).

As for `C[C@]12CC[C@@H]3c4ccc(O)c(O)c4CC[C@H]3[C@@H]1CC[C@@H]2O`, the carcinogen call is “active; positive” (Species: MOUSE, Strain/Sex: CD-1/FEMALE, Route: SUBCUTANEOUS, Dose: 0, 2 UG/D IN CORN OIL ON DAYS 1-5 OF LIFE (STUDY DURATION: 12-18 WK), Tumor Site: Type of Lesion: UTERUS: ADENOCARCINOMA); “inactive; negative; nonneoplastic changes observed” (Species: Mouse, Strain/Sex: CD-1/Female (45/experimental group; 40/control group), Route: Subcutaneous, Dose: 0, 2 ug in peanut oil, dosed on days 1-5 of life and retained for 1.5 (4 animals), 3 (4 animals), 6 (4 animals), 9 (4 an, Dose: 0, 2 ug in peanut oil, dosed on days 1-5 of life and retained for 1.5 (4 animals), 3 (4 animals), 6 (4 animals), 9 (4 an, Tumor Site: Type of Lesion: Uterus and ovaries examined).

As for `CC(=O)C=O`, the carcinogen call (Species: MOUSE, Strain/Sex: CD-1/FEMALE, Route: DERMAL, Dose: 0, 50 UMOL/0.1 ML DMSO 2/WK FOR 5 WK FOLLOWED 1 WK LATER BY 0.1 ML ACETONE 2/WK FOR 47 WK (STUDY DURATION: 52 WK)) was “inactive; negative”.

For the compound `C[C@]12C/C(=C/O)C(=O)C[C@@H]1CC[C@@H]1[C@@H]2CC[C@@]2(C)[C@H]1CC[C@]2(C)O`, the carcinogen call (Species: HUMAN, Route: ORAL, Tumor Site: Type of Lesion: LIVER) is “active; positive”; the carcinogen call (Species: RAT, Strain/Sex: F344/N/FEMALE, Route: GAVAGE, Dose: 0, 3, 30, 100 MG/KG IN 0.5% METHYLCELLULOSE FOR 104 WK (STUDY DURATION: 104 WK), Dose: 0, 3, 30, 100 MG/KG IN 0.5% METHYLCELLULOSE FOR 104 WK (STUDY DURATION: 104 WK), Tumor Site: Type of Lesion: LIVER: HEPATOCELLULAR ADENOMA, HEPATOCELLULAR ADENOMA OR CARCINOMA, LUNG: ALVEOLAR/BRONCHIOLAR ADENOMA, ALVEOLAR/BRONCHI) is “active; positive”; the carcinogen call (Species: RAT, Strain/Sex: F344/N/MALE, Route: GAVAGE, Dose: 0, 3, 30, 150 MG/KG IN 0.5% METHYLCELLULOSE FOR 104 WK (STUDY DURATION: 104 WK), Dose: 0, 3, 30, 150 MG/KG IN 0.5% METHYLCELLULOSE FOR 104 WK (STUDY DURATION: 104 WK), Tumor Site: Type of Lesion: SKIN (SUBCUTANEOUS TISSUE): FIBROMA, FIBROMA OR FIBROSARCOMA, ADRENAL GLAND: BENIGN PHEOCHROMOCYTOMA, BENIGN PHEOCHROMOC) is “equivocal”.
